From patent US10239861B2, “Therapeutic compounds and uses thereof” (GENENTECH, INC., priority 2015, dated 2019)

target: PCAF bromodomain (His/Flag epitope tagged PCAF719-832) (Homo sapiens (Human), UniProt Q92831); assay: PCAF AlphaLisa binding assay; details: AlphaLisa; PCAF bromodomain 225 nM, biotinylated small molecule ligand 6 nM; read-out: PCAF IC50
Method: IC50 Measurements for Inhibitors Using PCAF AlphaLisa Binding Assay
PCAF bromodomain binding and inhibition of the compounds disclosed herein was assessed by monitoring the engagement of biotinylated small molecule ligand (known to bind to the PCAF bromodomain) with the target using the AlphaLisa technology (Perkin-Elmer).

Chain of PCAF bromodomain (His/Flag epitope tagged PCAF719-832) (Q92831 719-832): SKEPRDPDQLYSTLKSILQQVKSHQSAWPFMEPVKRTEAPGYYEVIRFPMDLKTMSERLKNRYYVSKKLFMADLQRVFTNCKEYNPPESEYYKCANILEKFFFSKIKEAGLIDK

| SMILES | IC50 [nM] |
| --- | --- |
| CN1CCCC[C@H](Nc2cnn(C)c(=O)c2Cl)C1 [Example 57, (S)-4-chloro-2-methyl-5-((1-methylazepan-3-yl)amino)pyridazin-3(2H)-one] | 32.9 |
| CN1CCCC(Nc2cnn(C)c(=O)c2Cl)CC1 (racemic) [Example 4, (racemic)-4-chloro-2-methyl-5-((1-methylazepan-4-yl)amino)pyridazin-3(2H)-one] | 187 |
| CN1[C@@H]2CC[C@H]1C[C@@H](Nc1cnn(C)c(=O)c1Cl)C2 [Example 5, 4-chloro-2-methyl-5-(((1R,3r,5S)-8-methyl-8-azabicyclo[3.2.1]octan-3-yl)amino)pyridazin-3(2H)-one] | 480 |
| CN1CCC(Nc2cnn(C)c(=O)c2Cl)CC1 [Example 2, 4-chloro-2-methyl-5-((1-methylpiperidin-4-yl)amino)pyridazin-3(2H)-one] | 1220 |
